According to US11952348B1, “4,5-bis(4-bromophenyl)-1-hexyl-2-(4-hydroxy-3-dimethoxyphenyl)-1H-imidazole as an antimicrobial compound” (KING FAISAL UNIVERSITY, priority 2023, dated 2024):

Tests used:
Format in all cases: cell-based
Conditions in all cases: after 10, 20, 40 and 60 minutes at all dilutions 1:100, 1:200, 1:400, 1:800
[1] = system: Staphylococcus aureus; experiment: Antimicrobial screening by agar dilution, Staphylococcus aureus
Description: (§1) The antimicrobial properties of the 4,5-bis(4-bromophenyl)-1-hexyl-2-(4-hydroxy-3-dimethoxyphenyl)-1H-imidazole was studied by the method of agar dilution. Test solutions of each compound was prepared in concentration of 1% using dimethylformamide as a solvent then they were diluted in physiological solution to obtain the final experimental dilutions 1: 100, 1:200, 1:400, 1:800. The effect of these substances were compared with furacillin in a controlled study. The testing microbes used were gram positive bacteria Staphylococcus aureus, gram negative bacteria Pseudomonas aeruginosa and Escherichia coli and Candida albicans fungi were taken. The experiments used for this survey were meat-pentonlu agar (EPA) for cultivation of bacteria and Saburo environment for fungi. Each experiment used 1 ml of test solution on each plate 500 min. Add 2 drops of emulsified with microbes feel. All experimental samples were taken from the agar after 10, 20, 40, 60 minutes in the environment on the basis of Patrk planted. Bacteria were cultivated at a temperature of 37° C. for 1 day and the mushroom was kept in a thermostat for […] at a temperature of 28° C. Then results were checked.

[2] = system: Escherichia coli; experiment: Antimicrobial screening by agar dilution, Escherichia coli
Description: as §1

[3] = system: Pseudomonas aeruginosa; experiment: Antimicrobial screening by agar dilution, Pseudomonas aeruginosa
Description: as §1

[4] = system: Candida albicans; experiment: Antimicrobial (antifungal) screening by agar dilution, Candida albicans
Description: as §1

Measured: inhibition activity (summary in words)

CCCCCCn1c(-c2ccc(O)c(OC)c2)nc(-c2ccc(Br)cc2)c1-c1ccc(Br)cc1 [4,5-bis(4-bromophenyl)-1-hexyl-2-(4-hydroxy-3-dimethoxyphenyl)-1H-imidazole]
highest inhibition activity: all assays above
